According to PubChem BioAssay (NCI):
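The compound was tested at five concentrations on cells cultured in 96-well plates, with a 48-hour exposure period. GI50 = concentration required for 50% inhibition of growth. Definition used: TGI = concentration required for complete inhibition of growth.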

Key:
Assay in all cases: inhibition of tumour cell growth, NCI panel, 48 h
HOP-62 NSCLC = system: HOP-62 NSCLC
HS 578T breast = system: HS 578T breast
HT29 colon = system: HT29 colon
IGROV1 ovarian = system: IGROV1 ovarian
K-562 leukemia = system: K-562 leukemia
M14 melanoma = system: M14 melanoma
NCI-H23 lung = system: NCI-H23 lung
OVCAR-4 ovarian = system: OVCAR-4 ovarian
SK-MEL-28 melanoma = system: SK-MEL-28 melanoma
UACC-257 melanoma = system: UACC-257 melanoma

SMILES	GI50 (HOP-62 NSCLC) [µM]	TGI (HOP-62 NSCLC) [µM]	GI50 (HS 578T breast) [µM]	TGI (HS 578T breast) [µM]	GI50 (HT29 colon) [µM]	TGI (HT29 colon) [µM]	GI50 (IGROV1 ovarian) [µM]	TGI (IGROV1 ovarian) [µM]	GI50 (K-562 leukemia) [µM]	TGI (K-562 leukemia) [µM]	GI50 (M14 melanoma) [µM]	TGI (M14 melanoma) [µM]	GI50 (NCI-H23 lung) [µM]	TGI (NCI-H23 lung) [µM]	GI50 (OVCAR-4 ovarian) [µM]	TGI (OVCAR-4 ovarian) [µM]	GI50 (SK-MEL-28 melanoma) [µM]	TGI (SK-MEL-28 melanoma) [µM]	GI50 (UACC-257 melanoma) [µM]	TGI (UACC-257 melanoma) [µM]
COc1ccc(/C=C(\C#N)c2cc(OC)c(OC)c(OC)c2)cc1	< 0.0184	> 100	0.0359	> 100	0.0251	17.8	0.0432	> 100	< 0.01	> 100	0.0269	> 100	0.0242	> 100	0.0297	> 100	0.0634	> 100	0.012	> 100
COc1ccc(-c2cn3ccnc3c(-c3ccc(Cl)cc3)n2)cc1	16.3	> 100	3.83	48.2	6.66	> 100	7.46	> 100	4.01	> 100	5.95	> 100	4.71	40.3	5.61	> 100	5.37	> 100	6.81	48
O=S1(=O)CCC2=CC(C(F)(F)F)=CC(C(F)(F)F)=CN21		4.88		> 43.4		9.38		3.66		6.61		2.03		3.37		4.24		4.54		5.76
CC(C)(O)c1cc(Nc2cc(Oc3cn(C4CC4)nc3C3CCOCC3)ccn2)ccn1	> 100	> 100	73.8	> 100	68	> 100	62.4	> 100	27.5	> 100	89.1	> 100	34.8	> 100	> 100	> 100	> 100	> 100	85.1	> 100
C/C(=N\NC(=S)N1CCCC1)c1ccccn1	< 0.01	13.8	0.198	20.5	< 0.01	17.8	< 0.01	5.09	< 0.01	> 55.9	< 0.01	4.06	< 0.01	42.8	< 0.01	2.3	0.32	13.7	< 0.01	0.166
Cc1cc(C)nc(NC(=O)COc2ccc(Cl)cc2)c1		> 100		> 100		> 100		> 100		> 100		> 100		> 100		> 100		> 100		> 100
COc1ccc2c(CN3CCCC[C@H]3O)cc3cc4c(cc3c2c1)OCO4	0.541	3.52	0.663	2.94	0.274	1.93	0.368	9.3	0.364	4.35	0.319	1.15	0.445	1.82	0.393	2.99	0.329	1.31	0.237	0.737
